Measured values taken from publication PMC9246869, “Allosteric inhibition of PPM1D serine/threonine phosphatase via an altered conformational state” (Nature Communications, 2022).
Where “and” joins values, the source holds several entries; their conditions need not be identical. Equal values may be shown once.

Target: T1, PPM1D1–420 (Homo sapiens, UniProt O15297)
T1 construct: PPM1D1–420 was PCR-amplified from the synthesized gene with BsaI sites; His(6)-SUMO (N, cleaved yes); made in house; host or cells: E. coli BL21 (DE3)
T1 sequence (O15297 1-420): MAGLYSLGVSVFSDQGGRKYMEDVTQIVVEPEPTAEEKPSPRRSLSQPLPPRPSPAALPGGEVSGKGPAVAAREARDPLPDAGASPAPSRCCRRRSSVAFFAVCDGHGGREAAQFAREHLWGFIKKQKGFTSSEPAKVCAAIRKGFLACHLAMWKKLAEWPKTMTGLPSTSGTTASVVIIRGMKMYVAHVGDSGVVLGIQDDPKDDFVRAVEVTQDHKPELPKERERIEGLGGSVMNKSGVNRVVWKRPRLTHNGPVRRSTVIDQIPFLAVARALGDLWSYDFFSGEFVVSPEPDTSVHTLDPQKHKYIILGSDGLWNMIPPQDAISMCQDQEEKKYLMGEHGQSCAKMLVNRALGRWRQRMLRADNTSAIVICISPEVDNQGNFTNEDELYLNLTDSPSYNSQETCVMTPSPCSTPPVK
Assay: FDP (fluorescein diphosphate) enzymatic assay
Assay type: biochemical
Design: FDP assay rate (Fig 3B): unit not given here
Details: for FDP assay rate (Fig 3B): triplicates; for FDP Assay, signal relative to 0 nM GSK (=100): PPM1D1-420, individual runs, listed as GSK
Method: The FDP assay was adapted from reported protocol with minor modifications. Fluorescein diphosphate tetra-ammonium salt (CAS 217305-49-2) was purchased from AAT Bioquest (Cat No.11600). The assay was carried out on a 384-well plate (Corning Cat No.3575) with assay buffer containing 50 mM Tris (pH 7.5), 50 mM NaCl, 30 mM MgCl2, 0.01% tween 20, and 2% DMSO. Reactions were initiated with the addition of FDP to a solution containing wild-type PPM1D or one of its variants, to a final concentration of 5 nM for PPM1D and 100 μM for FDP (or as indicated in Kcat/KM measurements). A fluorescent signal was detected on a Spectramax microplate reader (485/530 nm) for the next 15 min at room temperature with an interval for data collection of 45 s. For the IC50 measurement, the compound was pre-incubated with PPM1D for 1 h before addition of the substrate.

## Cc1ncc(Cl)cc1NCc1ccc(C(=O)N[C@@H](CC2CCCC2)C(=O)NC2CC2)s1 [GSK2830371]
Michaelis–Menten kinetics, FDP hydrolysis
  mode of inhibition: noncompetitive inhibitor
PPM1D1–420, compound pre-incubated 1 h
  IC50: ~6 nM
[FDP] 25 uM, inhibitor 0.98 (unit not given)
  FDP assay rate (Fig 3B): 0.1081 and 0.1018 and 0.09496
[FDP] 25 uM, inhibitor 1.95 (unit not given)
  FDP assay rate (Fig 3B): 0.0895 and 0.07795 and 0.08008
[FDP] 25 uM, inhibitor 3.9 (unit not given)
  FDP assay rate (Fig 3B): 0.06795 and 0.05591 and 0.06219
[FDP] 25 uM, inhibitor 7.8 (unit not given)
  FDP assay rate (Fig 3B): 0.03815 and 0.02398 and 0.0308
[FDP] 25 uM, inhibitor 15.6 (unit not given)
  FDP assay rate (Fig 3B): 0.01708 and 0.01354 and 0.01271
[FDP] 50 uM, inhibitor 0.98 (unit not given)
  FDP assay rate (Fig 3B): 0.154 and 0.1613 and 0.1584
[FDP] 50 uM, inhibitor 1.95 (unit not given)
  FDP assay rate (Fig 3B): 0.1193 and 0.1343 and 0.126
[FDP] 50 uM, inhibitor 3.9 (unit not given)
  FDP assay rate (Fig 3B): 0.09839 and 0.1118 and 0.09908
[FDP] 50 uM, inhibitor 7.8 (unit not given)
  FDP assay rate (Fig 3B): 0.04672 and 0.06633 and 0.05157
[FDP] 50 uM, inhibitor 15.6 (unit not given)
  FDP assay rate (Fig 3B): 0.02583 and 0.03504 and 0.03088
[FDP] 100 uM, inhibitor 0.98 (unit not given)
  FDP assay rate (Fig 3B): 0.2227 and 0.2316 and 0.2315
[FDP] 100 uM, inhibitor 1.95 (unit not given)
  FDP assay rate (Fig 3B): 0.1741 and 0.1931 and 0.1914
[FDP] 100 uM, inhibitor 3.9 (unit not given)
  FDP assay rate (Fig 3B): 0.1254 and 0.1375 and 0.1433
[FDP] 100 uM, inhibitor 7.8 (unit not given)
  FDP assay rate (Fig 3B): 0.08834 and 0.102 and 0.1128
[FDP] 100 uM, inhibitor 15.6 (unit not given)
  FDP assay rate (Fig 3B): 0.04867 and 0.06283 and 0.04506
[FDP] 100 uM, inhibitor 31.3 (unit not given)
  FDP assay rate (Fig 3B): 0.02471 and 0.03171 and 0.02136
[FDP] 200 uM, inhibitor 0.98 (unit not given)
  FDP assay rate (Fig 3B): 0.2541 and 0.2837 and 0.2718
[FDP] 200 uM, inhibitor 1.95 (unit not given)
  FDP assay rate (Fig 3B): 0.1754 and 0.2253 and 0.2249
[FDP] 200 uM, inhibitor 3.9 (unit not given)
  FDP assay rate (Fig 3B): 0.1214 and 0.1628 and 0.1643
[FDP] 200 uM, inhibitor 7.8 (unit not given)
  FDP assay rate (Fig 3B): 0.119 and 0.111 and 0.098
[FDP] 200 uM, inhibitor 15.6 (unit not given)
  FDP assay rate (Fig 3B): 0.06395 and 0.07091 and 0.07759
[FDP] 200 uM, inhibitor 31.3 (unit not given)
  FDP assay rate (Fig 3B): 0.03445 and 0.04201 and 0.04948
[FDP] 200 uM, inhibitor 62.5 (unit not given)
  FDP assay rate (Fig 3B): 0.03178 and 0.03296 and 0.03025
[FDP] 400 uM, inhibitor 0.98 (unit not given)
  FDP assay rate (Fig 3B): 0.3661 and 0.3766 and 0.3211
[FDP] 400 uM, inhibitor 1.95 (unit not given)
  FDP assay rate (Fig 3B): 0.2969 and 0.3135 and 0.2543
[FDP] 400 uM, inhibitor 3.9 (unit not given)
  FDP assay rate (Fig 3B): 0.2182 and 0.2333 and 0.1765
[FDP] 400 uM, inhibitor 7.8 (unit not given)
  FDP assay rate (Fig 3B): 0.2094 and 0.221 and 0.1442
[FDP] 400 uM, inhibitor 15.6 (unit not given)
  FDP assay rate (Fig 3B): 0.1122 and 0.1116 and 0.1013
[FDP] 400 uM, inhibitor 31.3 (unit not given)
  FDP assay rate (Fig 3B): 0.06577 and 0.07799 and 0.08598
[FDP] 400 uM, inhibitor 62.5 (unit not given)
  FDP assay rate (Fig 3B): 0.04782 and 0.06273 and 0.0378
[FDP] 400 uM, inhibitor 125 (unit not given)
  FDP assay rate (Fig 3B): 0.03598 and 0.04023 and 0.04026
[GSK] 0.292969 nM
  FDP Assay, signal relative to 0 nM GSK (=100): 86.8743 and 86.4893
[GSK] 0.585938 nM
  FDP Assay, signal relative to 0 nM GSK (=100): 87.0301 and 86.6545
[GSK] 1.17188 nM
  FDP Assay, signal relative to 0 nM GSK (=100): 79.2709 and 79.2522
[GSK] 2.34375 nM
  FDP Assay, signal relative to 0 nM GSK (=100): 68.8335 and 60.4469
[GSK] 4.6875 nM
  FDP Assay, signal relative to 0 nM GSK (=100): 48.948 and 39.1972
[GSK] 9.375 nM
  FDP Assay, signal relative to 0 nM GSK (=100): 35.4075 and 36.7435
[GSK] 18.75 nM
  FDP Assay, signal relative to 0 nM GSK (=100): 24.9745 and 29.6638
[GSK] 37.5 nM
  FDP Assay, signal relative to 0 nM GSK (=100): 10.1395 and 7.848
[GSK] 75 nM
  FDP Assay, signal relative to 0 nM GSK (=100): 7.727 and 7.844
[GSK] 150 nM
  FDP Assay, signal relative to 0 nM GSK (=100): 2.646 and -0.6809
[GSK] 300 nM
  FDP Assay, signal relative to 0 nM GSK (=100): 0.03588 and 0.07574
